“Also recorded” adds a separate entry of the source. Read-outs that look alike come from different tables or passages of the source.
Tests used:
[1] = target: T1, 17(alpha)-hydroxylase/C17,20-lyase (Rattus norvegicus, UniProt P11715); test: Hydroxylase/lyase assay, rat testis homogenates, [21-14C]-progesterone side-chain cleavage (Examples 2 and 3, Table 2); type: biochemical; details: progesterone 40 microM, 45 min
T1 construct: with rat testis homogenates (2.7 mg protein in 0.5 ml phosphate buffer); from tissue; host or cells: rat testis homogenate
T1 sequence (P11715 1-507): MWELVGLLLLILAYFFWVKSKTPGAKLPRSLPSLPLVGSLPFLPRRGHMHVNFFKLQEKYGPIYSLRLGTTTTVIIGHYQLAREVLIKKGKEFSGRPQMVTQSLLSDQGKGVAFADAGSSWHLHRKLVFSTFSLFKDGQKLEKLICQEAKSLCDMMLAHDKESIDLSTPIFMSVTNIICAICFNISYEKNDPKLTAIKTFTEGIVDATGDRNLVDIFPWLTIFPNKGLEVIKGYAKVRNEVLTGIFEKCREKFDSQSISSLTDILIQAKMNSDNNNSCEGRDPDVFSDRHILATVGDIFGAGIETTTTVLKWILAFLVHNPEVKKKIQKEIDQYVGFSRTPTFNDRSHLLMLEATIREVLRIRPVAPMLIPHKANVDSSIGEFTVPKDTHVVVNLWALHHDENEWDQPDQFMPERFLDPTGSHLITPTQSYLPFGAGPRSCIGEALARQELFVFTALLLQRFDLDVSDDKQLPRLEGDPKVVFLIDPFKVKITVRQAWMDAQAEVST
Description: Compounds I-16 and I-25 were synthesized according to known procedures. The compounds were then assayed for their ability to inhibit the 17(alpha)-hydroxylase/C17,20 -lyase enzyme and the 5(alpha)-reductaseenzyme. The hydroxylase/lyase assay was carried out by incubation of [21-^14 C]-progesterone (40 microM, 70,000 dpm) and candidate inhibitors with rat testis homogenates (2.7 mg protein in 0.5 ml phosphate buffer), NADPH generating system under oxygen for 45 minutes. The enzyme activity was measured according to the conversion of progesterone to the product of C17,20 -side chain cleavage ([2-^14 C]-acetic acid). […] The results were based on the TLC separation.

17(alpha)-hydroxylase = target: T2, 17(alpha)-hydroxylase (Rattus norvegicus, UniProt P11715); test: 17(alpha)-hydroxylase assay, rat testicular microsomes (Example 1, Table 1); type: biochemical
T2 construct: approximately 1 mg rat testicular microsomal protein in 450 microliters phosphate buffer; from tissue; host or cells: testes of adult male Sprague-Dawley rats (Charles River), microsomal fraction
T2 sequence (P11715 1-507): T1 sequence (P11715 1-507)
Description: (§1) Testes were obtained from 220°-250g adult male Sprague-Dawley rats (Charles River), immediately frozen in liquid nitrogen and stored at -70° C. After thawing in the ice bath, the testes were minced and homogenized in 0.25M sucrose (1:4 w/v), then centrifuged at 12,000×gfor 30 min and the resulting supernatant centrifuged at 105,000×g for one hour. The supernatant was then decanted and the pellet containing the microsomes was resuspended in 0.1M sodium phosphate buffer (pH 7.4) (2.5g wet weight of tissue/ 2 ml buffer). All the above procedures were performed at 4C. The microsomal fraction was stored at -70C. Just before use, microsomes were diluted to the concentration of 1.25 g wet weight of tissue/10 ml phosphate buffer.
(§2) The incubation was stopped by cooling the mixture in an ice bath and adding 2 ml ether to each incubation tube. The ^3 H-labelled steriods (progesterone P4; 17(alpha)-hydroxyprogesterone 170HP4, androstenedione A and testosterone T, 8,000dpm each) were added as recovery markers and the steroids were extracted with ether (2 ml×3). The ether was evaporated with air. Steroid carriers (P4, 17-0HP4, A and T, 4 micrograms each) were added to the extracts which were then applied to thin layer chromatography (TLC) plates for separation of the steroids. After development for 1.5 hours in hexanes/ethyl acetate, 65:35(v/v), the steroids were located by UV (254 nm) absorption, scraped off and eluted into scintillation vials with ether. After evaporating the ether, the steroids were dissolved in counting cocktail and the radioactivity measured. The recovery of steroids calculated from the ^3 H-labelled markers was between 80 to 90 percent and the enzyme activity was determined from the percentage conversion of [4-C^14 ]-progesterone to 170HP4, A and T.
The purity of each steroid on the TLC was confirmed by two methods. First, the percent conversion of each compound in a half amount of the extract from one incubation were compared after separation of TLC and HPLC. The HPLC procedure has been described in detail previously. The solvent system used was methanol/acetonitrile/water (15.6:36.4:48). The flow rate was 1 ml/min and pressure 2200 psi, the retention time of these steroids was P4 38.3 min, 170HP4 15.93 min, A 14.33 min, and T 11.43 min, respectively. Secondly, after the first separation by TLC in solvent system A (hexane/ethyl acetate 65:35), the eluted steroids were chromatographed in solvent system B (chloroform/acetonitrile, 85:15).
^1 Incubation of [4^14 Cprogesterone (various concentration,
microsome (approximately 1 mg protein) and NADPH generating system was
carried out at 37 C. under O2 for 30 min. The apparent Km for this

C17,20-lyase = target: T3, C17,20-lyase (Rattus norvegicus, UniProt P11715); test: C17,20-lyase assay, rat testicular microsomes (Example 1, Table 1); type: biochemical
T3 construct: approximately 1 mg rat testicular microsomal protein in 450 microliters phosphate buffer; from tissue; host or cells: testes of adult male Sprague-Dawley rats (Charles River), microsomal fraction
T3 sequence (P11715 1-507): T1 sequence (P11715 1-507)
Description: as §1
C^17,20 -Lyase: The procedure for measurement of the C17,20 -lyase was similar to the procedure for the 17(alpha)-hydroxylase, except that the substrate was 17(alpha)-hydroxy-[[1,2,6,7-^3 H]-progesterone (various concentration, 10^5 dpm) and recovery markers were [4-^14 C]-labelled steroids. Carrier steroids (170HP4, A and T) were also added to locate the product areas on the TLC plates. The enzyme activity was determined from the percent conversion of 17(alpha)-hydroxy-[1,2,6,7-3H]-progesterone to A and T.
The purity of each steroid on the TLC was confirmed by two methods. First, the percent conversion of each compound in a half amount of the extract from one incubation were compared after separation of TLC and HPLC. The HPLC procedure has been described in detail previously. The solvent system used was methanol/acetonitrile/water (15.6:36.4:48). […] Secondly, after the first separation by TLC in solvent system A (hexane/ethyl acetate 65:35), the eluted steroids were chromatographed in solvent system B (chloroform/acetonitrile, 85:15).

[2] = target: T4, 17(alpha)-hydroxylase/17,20-lyase enzyme (Rattus norvegicus, UniProt P11715); test: 17(alpha)-hydroxylase/17,20-lyase inhibition, rat testicular microsomes (Example 1); type: biochemical; details: result in words
T4 sequence (P11715 1-507): T1 sequence (P11715 1-507)
Description: as §1
as §2, with “After development for 1.5 hours in hexanes/ethyl acetate, 65:35(v/v), the steroids were located by UV (254 nm) absorption, scraped off and eluted into scintillation vials with ether.” left out
C^17,20 -Lyase: The procedure for measurement of the C17,20 -lyase was similar to the procedure for the 17(alpha)-hydroxylase, except that the substrate was 17(alpha)-hydroxy-[[1,2,6,7-^3 H]-progesterone (various concentration, 10^5 dpm) and recovery markers were [4-^14 C]-labelled steroids. […] The enzyme activity was determined from the percent conversion of 17(alpha)-hydroxy-[1,2,6,7-3H]-progesterone to A and T.

DHT in the prostate = test: In vivo study: DHT concentration in the prostate of male rats (RIA); set-up: species or system rat (male Sprague-Dawley); details: 50 mg/kg/day sc, 21 days
Description: (§3) A group of 8 adult male Sprague-Dawley rats were injected sc with vehicle (0.3% hydroxypropyl cellulose, HPC) and a group of 8 rats were injected sc with a suspension of the compound I-23 in HPC (50 mg/kg body weight/day) every 24 hours for 21 days. The rats were autopsied at the last day, the ventral prostates and blood samples were collected. The prostate tissues were stored at -70° C. and the sera were separated first by centrifugation at 2,200 rpm, then stored at -15° C. until assayed. The DHT levels in the rat prostates were measured by radioimmunoassay (RIA) using testosterone/dihydrotestosterone RIA kit from Amersham Co. (Illinois). The testosterone levels in the rat sera were measured by using the [^125 I]-testosterone diagnostic kits (ICN Biochemics Inc.). The results obtained were analyzed by using Student t test.
(§4) The 4-pregnen-3-one-20(beta)-aldoxime was also studied for its effect on male rats in vivo. Male rats were daily treated with the compound at the dose of 50 mg/kg body weight injected subcutaneously for 21 days. […] The serum testosterone of these rats was measured as well.

serum testosterone = test: In vivo study: serum testosterone of male rats (RIA); set-up: species or system rat (male Sprague-Dawley); details: 50 mg/kg/day sc, 21 days
Description: as §3, §4

[3] = target: T5, rat testicular 17(alpha)-hydroxylase/C17,20-lyase (Rattus norvegicus, UniProt P11715); test: Hydroxylase/lyase assay, rat testicular homogenates, [21-14C]progesterone (Example 4, Table 3); type: biochemical; details: 0.75 h
T5 construct: rat testicular homogenates (prepared from 220-250g adult male Sprague-Dawley rats); from tissue; host or cells: testes of adult male Sprague-Dawley rats, homogenate
T5 sequence (P11715 1-507): T1 sequence (P11715 1-507)
Description: The assay was performed by incubation of rat testicular homogenates (prepared from 220-250g adult male Sprague-Dawley rats, approx. 3.5 mg protein) with [21-^14 C]progesterone (40uM, 5×10^4 dpm), NADPH generating system and candidate inhibitors in phosphate buffer (pH 7.4, total volume 500ul) under oxygen for 45 min at 37° C. Two ml of choloroform was added to each tube to stop the reaction. The steriods were extracted with chloroform and the aqueous phase was treated with charcoal. The side chain cleavage product [2-^14 C]acetic acid in the aqueous phase was mixed with 3a70B counting cocktail and counted on the Rack Beta II liquid scintillation counter. The enzyme activity was determined from the conversion of progesterone P4 to [2-^14 C]acetic acid.

[4] = in vivo; cited from earlier work
5(alpha)-reductase = target: T6, 5(alpha)-reductase (Homo sapiens, UniProt P31213); test: 5(alpha)-reductase assay, human prostatic (BPH) tissue homogenates (Example 1, Table 1); details: result in words
T6 sequence (P31213 1-254): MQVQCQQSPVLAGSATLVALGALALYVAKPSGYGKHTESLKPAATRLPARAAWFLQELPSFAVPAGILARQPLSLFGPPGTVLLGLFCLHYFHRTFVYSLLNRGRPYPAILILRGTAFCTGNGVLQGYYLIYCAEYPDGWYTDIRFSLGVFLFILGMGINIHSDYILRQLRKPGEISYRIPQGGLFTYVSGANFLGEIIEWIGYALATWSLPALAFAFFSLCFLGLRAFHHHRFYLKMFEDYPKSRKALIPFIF
Description: Tissue was homogenized in 0.1M phosphate buffer (60 mg wet weight of tissue/ ml buffer, pH 7.4) at 4C and the homogenates were diluted with an equal volume of buffer before use.
5(alpha)-reductase: [7-^3 H]testosterone (10^6 dpm) was incubated for 30 minutes at 37° C. with the NADPH generating system, homogenate of human prostatic tissue (30mg wet weight of tissue/1 ml buffer) and the candidate inhibitors at concentrations ranging from 0.1-10uM. […] The steroids were extracted with ether and the extracts chromatographed on TLC (chloroform: ether 95:5). […] The steroids were scraped from the plate and radioactivity measured.

Compound: C[C@H](C=O)[C@H]1CC[C@H]2[C@@H]3CCC4=CC(=O)CC[C@]4(C)[C@H]3CC[C@]12C [Compound I-16, 4-pregnen-3-one-20(beta)carboxaldehyde]
- % Inhibition of 17(alpha)hydroxylase/lyase, [I] = 10 × [S] [1]: 89.95%
- % Inhibition of 17(alpha)hydroxylase/lyase, [I] = [S] [1]: 61.76%

Compound: CCN(CC)C(=O)[C@H]1CC[C@H]2[C@@H]3CC[C@H]4N(C)C(=O)CC[C@]4(C)[C@H]3CC[C@]12C [Compound 4-MA, N,N-diethyl-4-methyl-3-oxo-4-aza-5(alpha)-androstane-17(beta)-carboxyamide, reference compound]
- 17(alpha)-hydroxylase Ki (17(alpha)-hydroxylase; rat testicular microsomes, progesterone substrate, 30 min, 37 C, N.I. = no inhibition): N.I
- C17,20-lyase Ki (C17,20-lyase; rat testicular microsomes, 17(alpha)-hydroxyprogesterone substrate, 30 min, 37 C, N.I. = no inhibition): N.I.
- % Inhibition of 17(alpha)hydroxylase/lyase, [I] = 10 × [S] [1]: No inhibition
- % Inhibition of 17(alpha)hydroxylase/lyase, [I] = [S] [1]: No inhibition
- inhibition of the 17(alpha)-hydroxylase/17,20-lyase enzyme [2]: did not show any inhibition

Compound: CC(O)(C#N)[C@H]1CC[C@H]2[C@@H]3CCC4=CC(=O)CC[C@]4(C)[C@H]3CC[C@]12C (stereo partly shown) [Compound I-25, 20-cyano-20-hydroxy-4-pregnen-3-one]
- % Inhibition of 17(alpha)hydroxylase/lyase, [I] = 10 × [S] [1]: 89.32%
- % Inhibition of 17(alpha)hydroxylase/lyase, [I] = [S] [1]: 50.63%

Compound: C[C@H](C=NO)[C@H]1CC[C@H]2[C@@H]3CCC4=CC(=O)CC[C@]4(C)[C@H]3CC[C@]12C [Compound I-23, 4-pregnen-3-oxo-20(beta)-carboxaldehyde oxime]
- Ki (17(alpha)-hydroxylase): 31.2 µM
- type of inhibition of the hydroxylase (17(alpha)-hydroxylase; Lineweaver-Burk): competitive inhibition
- Ki (C17,20-lyase): 1.07 µM
- potency versus Ketoconazole, C17,20-lyase (C17,20-lyase; FIG. 2, result in words): more potent than Ketoconazole
- type of inhibition of the lyase (C17,20-lyase; Lineweaver-Burk): competitive inhibition
- potency relative to ketoconazole for rat testicular C17,20-lyase (C17,20-lyase; according to the Ki values): approximately 3.5 fold
- prostatic DHT levels, effect in words (DHT in the prostate): effective in reducing
- serum testosterone (serum testosterone; n=8, control 4.03±0.64, P<0.005): 1.60±0.37 ng/ml serum
- plasma testosterone concentrations, effect in words (serum testosterone; rats): effective in reducing plasma testosterone concentrations
- inhibition at 400 µM ([3]; pH 7.4, read-out: Inhibition of 17(alpha)-hydroxylase/C17,20-lyase (%), [I] = 10 × [S]): 84%
- inhibition at 40 µM ([3]; pH 7.4, read-out: Inhibition of 17(alpha)-hydroxylase/C17,20-lyase (%), [I] = [S]): 39.3%
- selectivity lyase versus hydroxylase ([2]; according to Ki values, listed as 4-pregnen-3-one-20(beta)-aldoxime): more specific inhibitor for the lyase than for the hydroxylase; also recorded: preferentially inhibited the lyase rather than the hydroxylase step

Compound: CC(=O)N1CCN(c2ccc(OCC3COC(Cn4ccnc4)(c4ccc(Cl)cc4Cl)O3)cc2)CC1 (stereo not shown) [Ketoconazole, reference compound]
- Ki (17(alpha)-hydroxylase; rat testicular microsomes, progesterone substrate, 30 min, 37 C, N.I. = no inhibition, read-out: 17(alpha)-hydroxylase Ki): 39.5 µM
- Ki (C17,20-lyase; rat testicular microsomes, 17(alpha)-hydroxyprogesterone substrate, 30 min, 37 C, N.I. = no inhibition, read-out: C17,20-lyase Ki): 3.6 µM
- % Inhibition of 17(alpha)hydroxylase/lyase, [I] = 10 × [S] [1]: 65.80%
- % Inhibition of 17(alpha)hydroxylase/lyase, [I] = [S] [1]: 31.53%
- cortisol production and side-effects, in words [4]: reduces cortisol production and has a number of side-effects
- inhibition of 5(alpha)-reductase in the human prostate (5(alpha)-reductase): did not inhibit

Compound: C[C@]12CCC(=O)C(O)=C1CC[C@@H]1[C@@H]2CC[C@]2(C)C(=O)CC[C@@H]12 [Compound 4-OHA, 4-hydroxy androstenedione, reference compound]
- inhibition of the 17(alpha)-hydroxylase/17,20-lyase enzyme [2]: did not show any inhibition

Source: US5264427A, “20-substituted pregnene derivatives and their use as androgen synthesis inhibitors” (priority 1992, dated 1993)
